Measured values taken from publication PMC8175240, “Integrase-derived peptides together with CD24-targeted lentiviral particles inhibit the growth of CD24 expressing cancer cells” (Oncogene, 2021).
Residues, ends and D or L forms follow the SMILES beside them.

Key:
[1] = Solubility of IN-derived peptides in human plasma; assay type: physicochemical; details: LC-MS
Description: Analytic HPLC-MS was performed using an Agilent 1260 series Liquid Chromatography/Mass Selective Detector (MSD) equipped with an electrospray interface and a UV diode array detector. Analyses were performed on an ACE C8, 50 × 3.0 mm, 3 µm column, with an isocratic 0.1% formic acid/ACN eluent, at a rate of 1 ml/min over a period of 5 min. UV absorption was measured at 280 nm, 220 nm, and 215–395 nm. MS analysis was performed with ESI (electron spray ionization) with a positive ionization method.
Four reaction systems were prepared; INS and INR2 in human plasma, INS and INR2 in rat plasma (Supplementary Table 2). Freshly prepared 10 mg/ml stock solution of the peptides was injected into plasma or PBS solution (1:1). The mixture was diluted with methanol to precipitate the plasma proteins. The samples were filtered through PTFE 0.45 µm filters and run in LC-MS. Samples were taken at the following times: 0, 15, 30, 60, 120, 240, and 480 min and after 24 h.
Plasma solubility was determined at 0 min and was verified at 60 min (if no degradation was observed).

SD rats = test: Immunogenicity, anti-peptide antibody ELISA; assay type: in vivo, rat; details: biweekly administrations over 10 weeks, serum 1:50
Description: Animals were fed ad libitum a commercial rodent diet (Teklad Certified Global 18% Protein Diet). Animals had free access to sterilized and acidified drinking water (pH between 2.5 and 3.5). SD rats were randomly allocated to cages and treated twice a week, for ten weeks with INS peptide, at two doses of 1.5 and 7.5 mg/kg. Rat blood was collected before immunization (exposure to the peptide) to serve as a baseline, and after immunization at day 21, 35, 49, and 70/72. The immunogenicity was analyzed by evaluation of anti-peptide antibodies in the sera of SD rats, using a specific developed ELISA test. A 96 well plate was coated overnight with INS labeled with biotin (5 µg/ml) (Thermo Scientific) followed by blocking (3% Milk in PBS) for 1 h at room temperature (RT). Serum samples were diluted at 1:50 and added to the plates for 1 h at RT. After washing with PBST (three times), a donkey anti-rat antibody (Jackson Laboratories, cat. no. 705-035-003) (diluted 1:5000) was added and incubated for 1 h at RT. Then, TMB, diluted 1:2 was added and the reaction was stopped after 10 min with HCL solution. Absorbance was measured by an automated microplate reader (iMARK microplate reader, BioRad) with a wavelength of 450 nm.

CHO-WBL cells = test: Chromosomal aberration assay (genotoxicity); assay type: cell-based, Chinese hamster; details: for % Gaps / % Structural aberration without gaps / Cells with endoreduplication (%) / Cells with polyploidy (%) / Cytotoxicity (%) / % Structural aberrant cells: harvest 22 h; for Cytotoxicity (%): cell growth inhibition relative to negative control; for % Structural aberrant cells: cells with only gaps not included
Description: All cells were cultured for 22 h after initiation of INS treatment.

[2] = INS 10 µg/mL, +S9, 3 h treatment
[3] = INS 10 µg/mL, −S9, 3 h treatment
[4] = INS 10 µg/mL, −S9, 22 h treatment
[5] = INS 25 µg/mL, +S9, 3 h treatment
[6] = INS 25 µg/mL, −S9, 3 h treatment
[7] = INS 25 µg/mL, −S9, 22 h treatment
[8] = INS 50 µg/mL (precipitate), +S9, 3 h treatment
[9] = INS 50 µg/mL (precipitate), −S9, 3 h treatment
[10] = INS 50 µg/mL (precipitate), −S9, 22 h treatment

CC[C@H](C)[C@H](NC(=O)[C@H](Cc1ccccc1)NC(=O)[C@@H](NC(=O)[C@H](C)NC(=O)[C@H](CCSC)NC(=O)[C@H](CCC(N)=O)NC(=O)[C@@H](NC(=O)[C@H](C)NC(=O)[C@@H](NC(=O)[C@@H](N)Cc1c[nH]c2ccccc12)[C@@H](C)O)C(C)C)C(C)C)C(=O)N[C@@H](Cc1c[nH]cn1)C(=O)N[C@@H](CC(N)=O)C(=O)N[C@@H](Cc1ccccc1)C(=O)N[C@@H](CCCCN)C(=O)N[C@@H](CCCNC(=N)N)C(=O)N[C@@H](CCCCN)C(=O)O [INS] (H-WTAVQMAVFIHNFKRK-OH)
4%: Cytotoxicity (%) (CHO-WBL cells; [3])
62%: Solubility ([1]; % of 5 mg/mL sample)
3.1 mg/mL: Solubility ([1]; from 5 mg/mL sample (10 mg/ml stock into plasma 1:1), at 0 min, verified at 60 min, methanol precipitation, PTFE 0.45 µm filtration)
0.7%: % Gaps (CHO-WBL cells; [3]) | % Gaps (CHO-WBL cells; [4]) | % Gaps (CHO-WBL cells; [9])
1.7%: % Structural aberration without gaps (CHO-WBL cells; [8]) | % Structural aberrant cells (CHO-WBL cells; [8])
−3%: Cytotoxicity (%) (CHO-WBL cells; [7])
1.0%: % Structural aberration without gaps (CHO-WBL cells; [2]) | % Structural aberrant cells (CHO-WBL cells; [2]) | % Structural aberration without gaps (CHO-WBL cells; [4]) | % Structural aberrant cells (CHO-WBL cells; [4]) | % Structural aberration without gaps (CHO-WBL cells; [5]) | % Structural aberrant cells (CHO-WBL cells; [5]) | % Structural aberration without gaps (CHO-WBL cells; [6]) | % Structural aberrant cells (CHO-WBL cells; [6]) | % Structural aberration without gaps (CHO-WBL cells; [7]) | % Structural aberrant cells (CHO-WBL cells; [7])
very low: Immunogenicity (anti-peptide antibodies, ELISA; words) (SD rats; dose level 7.5 (mg/kg))
−7%: Cytotoxicity (%) (CHO-WBL cells; [9])
0.3%: % Gaps (CHO-WBL cells; [2]) | % Gaps (CHO-WBL cells; [5]) | Cells with endoreduplication (%) (CHO-WBL cells; [5]) | % Gaps (CHO-WBL cells; [6]) | Cells with endoreduplication (%) (CHO-WBL cells; [6]) | % Gaps (CHO-WBL cells; [8]) | % Gaps (CHO-WBL cells; [10])
7.3%: Cells with endoreduplication (%) (CHO-WBL cells; [8])
−10%: Cytotoxicity (%) (CHO-WBL cells; [6])
−1%: Cytotoxicity (%) (CHO-WBL cells; [4]) | Cytotoxicity (%) (CHO-WBL cells; [5]) | Cytotoxicity (%) (CHO-WBL cells; [10])
no: Immunogenicity (anti-peptide antibodies, ELISA; words) (SD rats; dose level 1.5 (mg/kg))
1.3%: % Structural aberration without gaps (CHO-WBL cells; [3]) | % Structural aberrant cells (CHO-WBL cells; [3]) | % Structural aberration without gaps (CHO-WBL cells; [9]) | % Structural aberrant cells (CHO-WBL cells; [9]) | % Structural aberration without gaps (CHO-WBL cells; [10]) | % Structural aberrant cells (CHO-WBL cells; [10])
46%: Cytotoxicity (%) (CHO-WBL cells; [8])
5%: Cytotoxicity (%) (CHO-WBL cells; [2])
0.0%: Cells with endoreduplication (%) (CHO-WBL cells; [2]) | Cells with polyploidy (%) (CHO-WBL cells; [2]) | Cells with endoreduplication (%) (CHO-WBL cells; [3]) | Cells with polyploidy (%) (CHO-WBL cells; [3]) | Cells with endoreduplication (%) (CHO-WBL cells; [4]) | Cells with polyploidy (%) (CHO-WBL cells; [4]) | Cells with polyploidy (%) (CHO-WBL cells; [5]) | Cells with polyploidy (%) (CHO-WBL cells; [6]) | % Gaps (CHO-WBL cells; [7]) | Cells with endoreduplication (%) (CHO-WBL cells; [7]) | Cells with polyploidy (%) (CHO-WBL cells; [7]) | Cells with polyploidy (%) (CHO-WBL cells; [8]) | Cells with endoreduplication (%) (CHO-WBL cells; [9]) | Cells with polyploidy (%) (CHO-WBL cells; [9]) | Cells with endoreduplication (%) (CHO-WBL cells; [10]) | Cells with polyploidy (%) (CHO-WBL cells; [10])
negative: Induction of structural chromosomal aberrations (conclusion) (CHO-WBL cells; 10-50 µg/mL, ±S9, 3 and 22 h)
